The record followed here is ChEMBL document CHEMBL5465560, “Selectivity Literature for EUbOPEN Chemogenomic Library” (2024).

Assay [1] addresses Calcium/calmodulin-dependent protein kinase kinase 2 (Homo sapiens) (UniProt Q96RR4). Put plainly: Selectivity interaction (KinomeScan (DiscoverX)) EUB0000595a CAMKK2. To be noted: at 10 µM.
The target in assay [2] is Serine/threonine-protein kinase MARK2 (Homo sapiens) (UniProt Q7KZI7). As to the kind of experiment: Selectivity interaction (KinomeScan (DiscoverX)) EUB0001619a MARK2. To be noted: at 1 µM.
Assay [3] concerns the target Serine/threonine-protein kinase NIM1 (Homo sapiens, UniProt Q8IY84). Put plainly: Selectivity interaction (KinomeScan (DiscoverX)) EUB0000666a NIM1K. To be noted: at 10 µM.
Assay [4] has as its target Cyclin-dependent kinase 18 (Homo sapiens) (UniProt Q07002). Put plainly: Selectivity interaction (ActivX KiNativ screen (kinase selectivity in THP-1 cell lysates)) EUB0000639a CDK18. To be noted: lysate, at 0.2 µM. The assay is classed as subcellular.
The target of assay [5] is Polycystin-1 (Homo sapiens) (UniProt P98161). As to the kind of experiment: Selectivity interaction (ActivX KiNativ screen (kinase selectivity in THP-1 cell lysates)) EUB0000639a PKD1. Format: subcellular. To be noted: lysate.
The target of assay [6] is Histone-lysine N-methyltransferase, H3 lysine-79 specific (Homo sapiens, UniProt Q8TEK3). To be noted: at 10 µM.
Assay [7] relates to Epidermal growth factor receptor (Homo sapiens), P00533 [G719C]. Put plainly: (§1) Selectivity interaction (KinomeScan (DiscoverX)) EUB0000045b EGFR.
For assay [8], the system named is Epidermal growth factor receptor (Homo sapiens), P00533 [G719S]. The assay is described as §1.
Assay [9] deals with Epidermal growth factor receptor (Homo sapiens), P00533 [L858R,T790M]. The description is as §1.
Assay [10] deals with Epidermal growth factor receptor (Homo sapiens), P00533 [L858R]. Described as §1.
Assay [11] has as its system Epidermal growth factor receptor (Homo sapiens), P00533 [L861Q]. The description is as §1.
The subject of assay [12] is Epidermal growth factor receptor (Homo sapiens), P00533 [T790M]. The description is as §1.
For assay [13], the system named is Epidermal growth factor receptor (Homo sapiens), P00533 [UNDEFINED MUTATION]. The assay is described as §1.
Assay [14] concerns the target Epidermal growth factor receptor (Homo sapiens, UniProt P00533). Described as §1.
In assay [15] the target is Serine/threonine-protein kinase PAK 6 (Homo sapiens) (UniProt Q9NQU5). Put plainly: Selectivity interaction (KinomeScan (DiscoverX)) EUB0000045b PAK6. To be noted: at 1 µM.
The target in assay [16] is MAP kinase-interacting serine/threonine-protein kinase 2 (Homo sapiens, UniProt Q9HBH9). Put plainly: Selectivity interaction (Ambit KINOMEscan and KiNATiv profiling in Jurkat cells) EUB0000090b MKNK2. Format: cell-based. To be noted: at 1 µM.
Assay [17] concerns the target Muscarinic acetylcholine receptor M1 (Homo sapiens, UniProt P11229). Put plainly: Selectivity interaction (Muscarinic M1 receptor assay, human recombinant ) EUB0000877a CHRM1.
The target in assay [18] is Phosphatidylinositol 4-phosphate 3-kinase C2 domain-containing subunit beta (Homo sapiens) (UniProt O00750). As to the kind of experiment: Selectivity interaction (KinomeScan (DiscoverX)) EUB0000655a PIK3C2B. To be noted: at 10 µM.
The target of assay [19] is T1, Mitogen-activated protein kinase 15 (Homo sapiens) (UniProt Q8TD08).
T1 sequence (whole entry): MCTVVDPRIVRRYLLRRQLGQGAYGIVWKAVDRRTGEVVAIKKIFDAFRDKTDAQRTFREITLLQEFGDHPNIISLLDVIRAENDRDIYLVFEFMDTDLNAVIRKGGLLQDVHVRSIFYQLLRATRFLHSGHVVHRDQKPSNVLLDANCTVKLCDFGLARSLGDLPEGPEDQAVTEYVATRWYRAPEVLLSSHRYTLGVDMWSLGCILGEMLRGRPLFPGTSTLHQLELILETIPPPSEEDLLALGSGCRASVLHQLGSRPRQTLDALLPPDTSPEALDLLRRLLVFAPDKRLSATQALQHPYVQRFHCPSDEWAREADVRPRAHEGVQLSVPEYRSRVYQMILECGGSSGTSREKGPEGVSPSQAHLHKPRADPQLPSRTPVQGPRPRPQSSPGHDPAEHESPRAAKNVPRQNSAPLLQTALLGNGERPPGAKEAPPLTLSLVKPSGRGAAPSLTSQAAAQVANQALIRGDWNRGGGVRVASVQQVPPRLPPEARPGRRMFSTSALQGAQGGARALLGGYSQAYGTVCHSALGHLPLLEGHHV
As to the kind of experiment: Selectivity interaction (KinomeScan (DiscoverX)) EUB0000618a MAPK15. To be noted: at 10 µM.

For assay [20], the target named is T2, Mitogen-activated protein kinase kinase kinase 7 (Homo sapiens) (UniProt O43318).
T2 sequence (whole entry): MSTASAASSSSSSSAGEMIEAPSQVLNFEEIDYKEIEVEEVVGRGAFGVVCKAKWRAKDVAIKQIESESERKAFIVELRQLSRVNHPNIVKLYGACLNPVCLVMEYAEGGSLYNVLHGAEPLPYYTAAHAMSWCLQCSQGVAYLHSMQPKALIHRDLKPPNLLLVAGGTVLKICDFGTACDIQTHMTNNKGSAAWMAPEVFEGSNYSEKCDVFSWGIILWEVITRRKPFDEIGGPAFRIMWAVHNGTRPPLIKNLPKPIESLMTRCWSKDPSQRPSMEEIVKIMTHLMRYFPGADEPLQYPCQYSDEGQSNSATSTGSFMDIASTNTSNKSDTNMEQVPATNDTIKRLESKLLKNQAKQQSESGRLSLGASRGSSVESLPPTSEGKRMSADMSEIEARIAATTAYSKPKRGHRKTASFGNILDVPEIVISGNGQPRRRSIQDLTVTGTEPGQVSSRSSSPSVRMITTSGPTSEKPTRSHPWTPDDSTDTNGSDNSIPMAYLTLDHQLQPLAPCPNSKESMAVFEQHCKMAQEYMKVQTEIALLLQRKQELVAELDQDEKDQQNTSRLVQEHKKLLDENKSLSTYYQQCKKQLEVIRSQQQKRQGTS
As to the kind of experiment: Selectivity interaction (KinomeScan (DiscoverX)) EUB0000618a MAP3K7. To be noted: at 10 µM.

Assay [21] concerns the target Ribosomal protein S6 kinase alpha-4 (Homo sapiens) (UniProt O75676). Put plainly: Selectivity interaction (KinomeScan (DiscoverX)) EUB0001079a RPS6KA4. To be noted: at 1 µM.
Assay [22] has as its target Serine/threonine-protein kinase B-raf (Homo sapiens) (UniProt P15056). Put plainly: (§2) Selectivity interaction (KinomeScan (DiscoverX)) EUB0000229b BRAF. To be noted: at 10 µM.
For assay [23], the system named is Serine/threonine-protein kinase B-raf (Homo sapiens), P15056 [V600E]. Described as §2. To be noted: at 1 µM.

Bounds are passed on as bounds.

Chain of Polycystin-1 (Homo sapiens) (P98161 24-4303 limits assumed): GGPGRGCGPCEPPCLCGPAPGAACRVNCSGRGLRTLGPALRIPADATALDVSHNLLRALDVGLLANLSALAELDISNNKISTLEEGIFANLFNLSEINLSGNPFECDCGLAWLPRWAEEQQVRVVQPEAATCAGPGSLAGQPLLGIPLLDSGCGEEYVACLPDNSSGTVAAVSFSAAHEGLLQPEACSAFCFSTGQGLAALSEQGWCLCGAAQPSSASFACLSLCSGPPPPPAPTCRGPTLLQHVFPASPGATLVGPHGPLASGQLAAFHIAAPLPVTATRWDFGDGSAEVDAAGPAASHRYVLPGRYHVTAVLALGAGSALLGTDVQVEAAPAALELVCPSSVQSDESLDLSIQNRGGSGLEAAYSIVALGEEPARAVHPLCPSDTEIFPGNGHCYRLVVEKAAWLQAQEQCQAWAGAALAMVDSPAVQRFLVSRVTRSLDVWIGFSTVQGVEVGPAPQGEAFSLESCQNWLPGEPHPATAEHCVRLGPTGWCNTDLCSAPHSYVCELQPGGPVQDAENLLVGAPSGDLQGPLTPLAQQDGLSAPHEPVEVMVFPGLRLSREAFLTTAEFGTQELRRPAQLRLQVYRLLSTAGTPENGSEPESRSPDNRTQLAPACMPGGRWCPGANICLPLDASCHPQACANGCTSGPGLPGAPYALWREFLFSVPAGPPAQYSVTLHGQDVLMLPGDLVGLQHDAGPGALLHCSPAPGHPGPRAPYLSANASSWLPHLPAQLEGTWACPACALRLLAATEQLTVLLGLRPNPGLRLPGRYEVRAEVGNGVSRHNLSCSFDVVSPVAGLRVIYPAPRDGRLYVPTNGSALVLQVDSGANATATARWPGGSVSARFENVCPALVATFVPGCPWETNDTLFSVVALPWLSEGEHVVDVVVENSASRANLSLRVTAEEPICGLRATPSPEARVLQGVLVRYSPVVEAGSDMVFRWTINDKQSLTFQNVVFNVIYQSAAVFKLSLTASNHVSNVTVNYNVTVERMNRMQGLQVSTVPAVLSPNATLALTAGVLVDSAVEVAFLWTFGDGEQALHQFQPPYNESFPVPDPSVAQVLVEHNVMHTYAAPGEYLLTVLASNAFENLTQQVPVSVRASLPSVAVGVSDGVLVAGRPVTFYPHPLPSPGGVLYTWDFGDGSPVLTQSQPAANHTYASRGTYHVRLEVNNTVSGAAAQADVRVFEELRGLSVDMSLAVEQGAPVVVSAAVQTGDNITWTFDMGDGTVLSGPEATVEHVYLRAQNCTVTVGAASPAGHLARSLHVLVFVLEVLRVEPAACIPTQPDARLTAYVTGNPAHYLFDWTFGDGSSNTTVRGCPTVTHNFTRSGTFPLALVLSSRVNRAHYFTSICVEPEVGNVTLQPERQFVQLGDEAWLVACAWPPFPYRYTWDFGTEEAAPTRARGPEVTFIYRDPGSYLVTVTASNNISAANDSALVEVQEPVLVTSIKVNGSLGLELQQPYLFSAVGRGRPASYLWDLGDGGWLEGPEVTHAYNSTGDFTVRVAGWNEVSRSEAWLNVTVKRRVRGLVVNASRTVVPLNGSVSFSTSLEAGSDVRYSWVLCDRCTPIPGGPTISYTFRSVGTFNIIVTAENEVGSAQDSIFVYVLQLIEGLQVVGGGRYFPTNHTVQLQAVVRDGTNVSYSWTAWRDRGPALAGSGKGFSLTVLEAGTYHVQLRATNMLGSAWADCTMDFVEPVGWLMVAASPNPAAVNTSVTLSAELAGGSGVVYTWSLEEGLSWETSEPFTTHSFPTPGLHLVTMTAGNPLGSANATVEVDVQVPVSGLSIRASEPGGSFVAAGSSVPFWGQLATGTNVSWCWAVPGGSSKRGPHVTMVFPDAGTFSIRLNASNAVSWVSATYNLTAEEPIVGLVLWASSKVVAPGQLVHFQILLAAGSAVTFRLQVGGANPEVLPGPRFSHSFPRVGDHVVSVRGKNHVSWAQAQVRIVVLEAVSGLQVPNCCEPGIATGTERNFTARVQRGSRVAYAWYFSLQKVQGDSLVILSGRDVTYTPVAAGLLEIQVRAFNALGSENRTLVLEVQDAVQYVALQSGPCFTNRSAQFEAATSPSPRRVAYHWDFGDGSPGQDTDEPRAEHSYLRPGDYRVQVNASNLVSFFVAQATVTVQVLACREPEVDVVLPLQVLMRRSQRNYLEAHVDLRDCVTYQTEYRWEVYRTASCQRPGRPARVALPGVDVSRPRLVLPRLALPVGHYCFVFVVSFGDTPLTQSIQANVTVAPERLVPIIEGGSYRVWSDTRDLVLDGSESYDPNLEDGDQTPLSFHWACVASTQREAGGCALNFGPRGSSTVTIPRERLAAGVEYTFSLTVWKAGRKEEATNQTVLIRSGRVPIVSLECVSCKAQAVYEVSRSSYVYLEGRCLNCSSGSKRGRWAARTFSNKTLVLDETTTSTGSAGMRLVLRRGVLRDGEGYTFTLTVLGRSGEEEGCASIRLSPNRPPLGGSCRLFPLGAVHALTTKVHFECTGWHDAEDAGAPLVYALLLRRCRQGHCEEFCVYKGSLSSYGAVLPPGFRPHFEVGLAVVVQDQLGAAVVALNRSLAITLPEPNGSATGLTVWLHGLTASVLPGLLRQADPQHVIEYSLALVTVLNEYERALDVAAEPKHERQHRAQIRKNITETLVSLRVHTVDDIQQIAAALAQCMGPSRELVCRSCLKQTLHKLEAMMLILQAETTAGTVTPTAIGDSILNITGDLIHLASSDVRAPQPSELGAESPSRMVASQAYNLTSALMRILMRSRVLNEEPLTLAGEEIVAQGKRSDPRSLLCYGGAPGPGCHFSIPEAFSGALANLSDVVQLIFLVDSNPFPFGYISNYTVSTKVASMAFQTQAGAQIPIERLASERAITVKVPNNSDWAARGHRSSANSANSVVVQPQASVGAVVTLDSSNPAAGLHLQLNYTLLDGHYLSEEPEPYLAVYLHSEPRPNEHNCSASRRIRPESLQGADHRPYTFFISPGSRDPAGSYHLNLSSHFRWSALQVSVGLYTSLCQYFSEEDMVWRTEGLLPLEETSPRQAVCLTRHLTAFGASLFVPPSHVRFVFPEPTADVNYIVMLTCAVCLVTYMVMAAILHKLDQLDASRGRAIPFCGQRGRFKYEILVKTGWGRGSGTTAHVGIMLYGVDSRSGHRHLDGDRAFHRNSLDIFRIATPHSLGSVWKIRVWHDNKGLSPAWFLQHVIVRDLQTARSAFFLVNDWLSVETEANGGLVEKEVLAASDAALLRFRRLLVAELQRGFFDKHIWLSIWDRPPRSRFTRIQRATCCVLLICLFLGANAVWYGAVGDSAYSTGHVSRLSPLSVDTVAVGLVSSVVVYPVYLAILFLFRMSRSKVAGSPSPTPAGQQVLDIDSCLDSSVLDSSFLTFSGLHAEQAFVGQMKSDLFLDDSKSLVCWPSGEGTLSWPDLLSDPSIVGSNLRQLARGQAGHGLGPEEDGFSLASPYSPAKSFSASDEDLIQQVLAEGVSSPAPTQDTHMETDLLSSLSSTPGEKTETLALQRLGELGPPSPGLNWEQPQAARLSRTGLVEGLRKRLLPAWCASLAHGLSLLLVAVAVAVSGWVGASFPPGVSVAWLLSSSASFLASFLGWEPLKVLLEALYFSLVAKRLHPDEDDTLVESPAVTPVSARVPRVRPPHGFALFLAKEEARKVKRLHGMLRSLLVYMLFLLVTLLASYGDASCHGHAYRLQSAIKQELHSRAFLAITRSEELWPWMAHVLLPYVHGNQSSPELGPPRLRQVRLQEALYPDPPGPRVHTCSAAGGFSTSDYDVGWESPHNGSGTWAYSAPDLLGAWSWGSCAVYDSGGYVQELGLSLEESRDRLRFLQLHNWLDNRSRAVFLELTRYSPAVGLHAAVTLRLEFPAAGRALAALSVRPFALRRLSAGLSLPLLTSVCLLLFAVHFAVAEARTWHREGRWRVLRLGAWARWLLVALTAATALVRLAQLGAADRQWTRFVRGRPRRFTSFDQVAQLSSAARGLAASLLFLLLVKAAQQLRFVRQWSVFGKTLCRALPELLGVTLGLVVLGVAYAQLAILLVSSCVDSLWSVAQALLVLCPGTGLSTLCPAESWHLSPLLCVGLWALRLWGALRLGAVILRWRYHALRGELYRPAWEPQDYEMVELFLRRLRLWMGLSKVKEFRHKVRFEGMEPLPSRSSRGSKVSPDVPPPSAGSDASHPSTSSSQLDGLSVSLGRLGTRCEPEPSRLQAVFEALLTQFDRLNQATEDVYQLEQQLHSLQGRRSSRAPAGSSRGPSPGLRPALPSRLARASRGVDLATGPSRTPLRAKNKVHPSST
Chain of Ribosomal protein S6 kinase alpha-4 (Homo sapiens) (O75676 whole entry, looked up): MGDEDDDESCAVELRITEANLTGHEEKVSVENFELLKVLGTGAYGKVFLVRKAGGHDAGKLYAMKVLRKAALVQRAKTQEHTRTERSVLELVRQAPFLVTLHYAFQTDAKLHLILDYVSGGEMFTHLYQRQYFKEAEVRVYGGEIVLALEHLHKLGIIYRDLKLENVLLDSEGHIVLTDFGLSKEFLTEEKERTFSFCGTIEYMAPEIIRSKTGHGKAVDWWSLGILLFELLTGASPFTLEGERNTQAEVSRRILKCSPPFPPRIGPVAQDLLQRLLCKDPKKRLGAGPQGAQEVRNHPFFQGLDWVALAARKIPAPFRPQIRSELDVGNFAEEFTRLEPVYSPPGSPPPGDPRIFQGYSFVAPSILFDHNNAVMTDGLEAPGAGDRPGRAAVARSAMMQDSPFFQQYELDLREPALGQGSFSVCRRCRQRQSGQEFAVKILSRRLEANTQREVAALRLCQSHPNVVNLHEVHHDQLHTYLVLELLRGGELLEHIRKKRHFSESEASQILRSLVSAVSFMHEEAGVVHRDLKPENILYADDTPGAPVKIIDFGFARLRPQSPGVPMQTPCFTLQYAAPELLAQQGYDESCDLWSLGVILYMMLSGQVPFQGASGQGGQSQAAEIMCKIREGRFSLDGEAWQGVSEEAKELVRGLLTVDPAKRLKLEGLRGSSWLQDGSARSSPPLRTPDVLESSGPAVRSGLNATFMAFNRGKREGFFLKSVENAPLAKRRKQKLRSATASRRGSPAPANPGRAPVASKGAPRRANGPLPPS

As for `COCC(=O)NC/C=C/c1ccc2ncnc(Nc3ccc(Oc4ccc(C)nc4)c(C)c3)c2c1` [CP-724714], the % of control in assay [1] was 85%.
`N#Cc1cccc(-c2c[nH]c3ncnc(N4CCOCC4)c23)c1` gave a % of control in assay [2] of 43%.
In assay [3], `O=C(NOC[C@H](O)CO)c1ccc(F)c(F)c1Nc1ccc(I)cc1F` displayed a % of control of 100%.
Take `CC[C@@H]1[C@H](F)C(=O)N[C@@H]1COc1nccc2cc(C(N)=O)c(OC)cc12` [ZIMLOVISERTIB]: the % of inhibition was 0.4% in [4]; -7.2% in assay [5] (at 0.01 µM); -3.5% in assay [5] (at 0.04 µM); -8.9% in [5] (at 0.2 µM); 8% in assay [5] (at 1 µM); 8.9% in [5] (at 5 µM).
For `CNCCN1CCC(c2cc(CN(C)C(=O)c3cccc(Oc4ccccc4)c3)ccn2)CC1`, in assay [6], the % activity was more than 90%.
With `C=CC(=O)Nc1cc(-n2c(=O)ccc3cnc4ccc(-c5ccc(NS(C)(=O)=O)cc5)cc4c32)ccc1C`, the % of control was 73% in assay [7] (at 1 µM); 90% in [7] (at 10 µM); 90% in assay [8] (at 1 µM); 85% in assay [8] (at 10 µM); 100% in [9] (at 1 µM); 44% in [9] (at 10 µM). Also, the % of control in [10] (at 1 µM) stood at 95%; in assay [10] (at 10 µM) it was 50%; in assay [11] (at 1 µM), 40%; in assay [11] (at 10 µM), 45%; in assay [12] (at 1 µM), 11%; in assay [12] (at 10 µM), 2.1%. The % of control was 100% in [13] (at 1 µM); 32% in assay [13] (at 10 µM); 82% in [14] (at 1 µM); 25% in assay [14] (at 10 µM); 98% in assay [15].
Regarding `CN(C)C/C=C/C(=O)Nc1ccc(C(=O)N2CCCC(Nc3ncc(Cl)c(-c4c[nH]c5ccccc45)n3)C2)cc1` (stereo not given), the % of control in assay [16] came to 88%.
One may read the IC50 as the midpoint of a concentration-inhibition curve. As for `CCC(=O)N1CC[C@H](Nc2ncnc3c2CN(c2cnc(OC)c(C(F)(F)F)c2)CC3)C1` [LENIOLISIB], the IC50 in assay [17] is more than 30 µM.
In assay [18], `CN(C)CCOc1ccc(-c2nc(-c3ccncc3)c(-c3ccc4c(c3)CC/C4=N\O)[nH]2)cc1` returned a % of control of 64%.
Regarding `O[C@H]1CC[C@H](Nc2ncc3nc(Nc4c(F)cc(F)cc4F)n([C@H]4CCOC4)c3n2)CC1`, the % of control amounted to 100% in assay [19] and 99% in [20].
In assay [21], `Nc1cnc(N2CCc3cc(S(=O)(=O)Nc4c(F)cc(Cl)cc4F)cc(N4CCCC4=O)c32)nc1` [TP-020n] registered a % of control of 96%.
Take `COc1cc(N(C)c2ccnc3ccc(C(F)(F)F)cc23)cc(OC)c1OC`: the % binding worked out at 71% in [22] and 78% in [23].
